In US6638974B1, “Ascorbyl esters for the treatment of cancer” (University of South Florida, priority 1999, dated 2003):
Where two headings read alike, the source gives them in different places.

How the values were obtained:
HT29 cells [1] = experiment: MTT cell viability assay, HT29; format: cell-based, human; details: for effect on HT29 cells (MTT): similar concentrations and incubation times as As-P (24 and 48 hours); for inhibition at 150 µM: Homo sapiens, HT-29, 150 μM (5 FU at a similar concentration), read-out: inhibition of HT29 cell growth (MTT)
Procedure: (§1) HT-29, a human colon adenocarcinoma cell line, and CCD 18, a normal colon fibroblast, were obtained from the American Type Culture Collection (Rockville, Md.). The cells were grown in RPM1 1640 medium containing HEPES (20 mM), fetal bovine serum (10%), sodium bicarbonate (1 g/L), and penicillin (10 U/ml), streptomycin (10 ug/ml) at 37° C. in 5% CO2 humidified atmosphere.
(§2) The effect of various concentrations of As-P, ascorbate, palmitate or 5-fluorouracil (5 FU) on the viability and/or proliferation of HT29 or CCD 18 cells were evaluated. Cells were seeded in 96-well culture plates at 1×10^4 cells/well. The following day, As-P, ascorbate, palmitate or 5 FU were added at various concentrations. Cell viability was evaluated by the MTT assay 24 hours or 48 hours after the addition of the compounds. The effect of As-P on the cell cycle of HT29 cells was also investigated by flow cytometry.

CCD 18 cells = experiment: MTT cell viability assay, CCD 18; format: cell-based, human; details: for effect on CCD18 fibroblasts (MTT): similar concentrations and incubation times as As-P (24 and 48 hours); for inhibition at 150 µM: Homo sapiens, Fibroblast, read-out: inhibitory effect on CCD 18 fibroblasts (MTT)
Procedure: as §1, §2

HT29 cells [2] = experiment: Cell cycle analysis by flow cytometry, HT29; format: cell-based, human; details: 24 hours
Procedure: HT29 cells were seeded into 25 cm^2 flasks at a density of 1×10^4 cells/ml. 72 hours after seeding, As-P was added to HT29 cells in culture at a final concentration of 50 μM, 100 μM, 150 μM. Control cells received medium only. After 24 hours of incubation, cells were harvested and processed for flow cytometry DNA analysis.

Advanced colon cancer = details: single agent; cited from earlier work

CCCCCCCCCCCCCCCC(=O)O [palmitate, reference compound]
effect on HT29 cells (MTT) (HT29 cells [1]): no inhibitory effect | effect on CCD18 fibroblasts (MTT) (CCD 18 cells): no inhibitory effect

CCCCCCCCCCCCCCCC(=O)OC[C@H](O)[C@H]1OC(=O)C(O)=C1O [As-P, L-Ascorbyl 6-palmitate]
% G2 + M (HT29 cells [2]; HT29, 50 μM As-P): 7.8% | % G4/G1 (HT29 cells [2]; HT29, 50 μM As-P): 57.1% | % S (HT29 cells [2]; HT29, 50 μM As-P): 35.1% | % G2 + M (HT29 cells [2]; HT29, 100 μM As-P): 4.3% | % G4/G1 (HT29 cells [2]; HT29, 100 μM As-P): 73.1% | % S (HT29 cells [2]; HT29, 100 μM As-P): 22.6% | % G2 + M (HT29 cells [2]; HT29, 150 μM As-P): 3.2% | % G4/G1 (HT29 cells [2]; HT29, 150 μM As-P): 86.1% | % S (HT29 cells [2]; HT29, 150 μM As-P): 10.7% | inhibition at 150 µM (HT29 cells [1]; 24 hours): 73% | inhibition at 150 µM (HT29 cells [1]; 48 hours): 89% | effect on HT29 cells at higher concentrations (HT29 cells [1]; above 100 μM): cytotoxic effect | effect on HT29 cell growth at lower concentrations (HT29 cells [1]; below 100 μM): stimulatory effect | effect on HT29 cell growth (HT29 cells [1]; higher concentrations (>125 μM)): great inhibitory effect | effect on HT29 cell growth (HT29 cells [1]; lower concentrations (<75 μM)): slight stimulating effect | inhibition at 150 µM (CCD 18 cells; 24 hours): ~20% | inhibition at 150 µM (CCD 18 cells; 48 hours): ~20% | effect on CCD 18 fibroblasts at lower concentrations (CCD 18 cells; lower concentrations): stimulatory effect

O=C1O[C@H]([C@@H](O)CO)C(O)=C1O [ascorbate, reference compound]
effect on HT29 cells (MTT) (HT29 cells [1]): no inhibitory effect | effect on CCD18 fibroblasts (MTT) (CCD 18 cells): no inhibitory effect

O=c1[nH]cc(F)c(=O)[nH]1 [5 FU, 5-Fluorouracil, reference compound]
effect on growth of HT29 cells at 24 hours (HT29 cells [1]; 24 hours): little or no inhibitory effect | inhibition of growth of HT29 cells at 48 hours (HT29 cells [1]; 48 hours, concentration not given): approximately 40% | inhibition at 150 µM (HT29 cells [1]; 24 hours): 14% | inhibition at 150 µM (HT29 cells [1]; 48 hours): 40% | effect on growth of CCD 18 fibroblasts at 24 hours (CCD 18 cells; 24 hours): little or no inhibitory effect | effect on CCD 18 cells at 48 hours (CCD 18 cells; 48 hours): little effect | response rate (Advanced colon cancer): 10-20%
